Experimental data from article PMC12282101, “Heat shock protein 90 chaperone activity is required for hepatitis A virus replication” (Journal of Virology, 2025).
Structures can show the parent of a compound that is named as a salt.

Tests used:
18f-NLuc reporter virus = experiment: microbe, parasite or virus in culture; format: cell-based, Hepatitis A virus; settings: for activity at 10 µM: Hepatovirus A, Huh-7.5.1, 72 h, read-out: Normalized HAV production
Huh-7.5.1 cells = experiment: Cell viability in the chemical screen (Cell TiterGlo); settings: 10 µM compound, 72 h

Compound	activity at 10 µM (18f-NLuc reporter virus)	Viability Percent DMSO (Huh-7.5.1 cells)	Normalized HAV production (18f-NLuc reporter virus)
CO/N=C(\C(=O)N[C@@H]1C(=O)N2C(C(=O)O)=C(C[N+]3(C)CCCC3)CS[C@H]12)c1csc(N)n1 [Cefepime Dihydrochloride Monohydrate]	73%	116 Percent DMSO	
C=CC1=C(C(=O)O)N2C(=O)[C@@H](NC(=O)/C(=N\OCC(=O)O)c3csc(N)n3)[C@H]2SC1 [Cefixime]	90%	109 Percent DMSO	
CO/N=C(\C(=O)N[C@@H]1C(=O)N2C(C(=O)O)=C(COC(C)=O)CS[C@H]12)c1csc(N)n1 [Cefotaxime sodium]	80%	113 Percent DMSO	
Cc1cc(O)cc(C)c1Cl [Chloroxylenol]	90%	108 Percent DMSO	
Clc1ccc(Cn2c(CN3CCCC3)nc3ccccc32)cc1 [Clemizole]	58%	166 Percent DMSO	
Cc1cn([C@H]2O[C@@H](CO)[C@H](O)[C@H]2F)c(=O)[nH]c1=O [Clevudine]	84%	132 Percent DMSO	
Clc1ccccc1C(c1ccccc1)(c1ccccc1)n1ccnc1 [Clotrimazole]	85%		
CC(C)c1nc(CN(C)C(=O)N[C@@H](CCN2CCOCC2)C(=O)N[C@H](CC[C@H](Cc2ccccc2)NC(=O)OCc2cncs2)Cc2ccccc2)cs1 [Cobicistat]	34%	176 Percent DMSO	
CN(C)c1ccc(C(=C2C=CC(=[N+](C)C)C=C2)c2ccc(N(C)C)cc2)cc1 [Crystal Violet]	0.413%	20 Percent DMSO	
Nc1ccn([C@@H]2O[C@H](CO)[C@@H](O)[C@@H]2O)c(=O)n1 [Cytarabine]	66%	97 Percent DMSO	
COC(=O)N[C@H](C(=O)N1CCC[C@H]1c1nc(-c2ccc(-c3ccc(-c4c[nH]c([C@@H]5CCCN5C(=O)[C@@H](NC(=O)OC)C(C)C)n4)cc3)cc2)c[nH]1)C(C)C [Daclatasvir dihydrochloride]	88%	125 Percent DMSO	
Cc1cc(C)c(Nc2ccnc(Nc3ccc(C#N)cc3)n2)c(C)c1 [Dapivirine]	14%	114 Percent DMSO	
COc1c(-c2ccc3cc(NS(C)(=O)=O)ccc3c2)cc(-n2ccc(=O)[nH]c2=O)cc1C(C)(C)C [Dasabuvir]	14%	116 Percent DMSO	
O=c1[nH]c(=O)n([C@H]2C[C@H](O)[C@@H](CO)O2)cc1I [Dendrid]	102%	103 Percent DMSO	
Oc1ccc(Cl)c2cccnc12 [Dermofongin]		101 Percent DMSO	0.98
CN(C)CC[C@@H](c1ccc(Cl)cc1)c1ccccn1 [Dexchlorpheniramine Maleate]	74%	118 Percent DMSO	
CC1(C)[C@@H](O[C@H]2O[C@H](C(=O)O)[C@@H](O)[C@H](O)[C@H]2O[C@@H]2O[C@H](C(=O)O)[C@@H](O)[C@H](O)[C@H]2O)CC[C@]2(C)[C@H]3C(=O)C=C4[C@@H]5C[C@@](C)(C(=O)O)CC[C@]5(C)CC[C@@]4(C)[C@]3(C)CC[C@@H]12.N.N [Diammonium Glycyrrhizinate]		116 Percent DMSO	0.78
CC(=O)OCC(=O)[C@@]1(O)CC[C@H]2[C@@H]3CCC4=CC(=O)C=C[C@]4(C)[C@@]3(Cl)[C@@H](Cl)C[C@@]21C [Dichlorisone Acetate]	97%	105 Percent DMSO	
O=C[C@H](O)[C@H]1OC(=O)[C@@H](O)[C@H]1O [Dicurone]			1.16
O=c1[nH]cnc2c1ncn2[C@H]1CC[C@@H](CO)O1 [Didanosine]	155%	108 Percent DMSO	
C[C@@H]1CCO[C@H]2Cn3cc(C(=O)NCc4ccc(F)cc4F)c(=O)c(O)c3C(=O)N12 [Dolutegravir]	49%	159 Percent DMSO	
Cn1c(Cn2ccc(C(F)(F)F)c(Oc3cc(Cl)cc(C#N)c3)c2=O)n[nH]c1=O [Doravirine]	140%	95 Percent DMSO	
Clc1ccc(COC(Cn2ccnc2)c2ccc(Cl)cc2Cl)cc1 (stereo not shown) [Econazole]	100%		
Clc1ccc(COC(Cn2ccnc2)c2ccc(Cl)cc2Cl)c(Cl)c1 (stereo not shown) [Miconazole]	74%		
CC(C)c1nc(CN(C)C(=O)N[C@H](C(=O)N[C@@H](Cc2ccccc2)C[C@H](O)[C@H](Cc2ccccc2)NC(=O)OCc2cncs2)C(C)C)cs1 [Ritonavir]	34%		
Maraviroc			0.94
